# Data taken from US7994140B2, “Classes of compounds that interact with GPCRs” (Alchemia Limited, priority 2002, dated 2011).
# Molecular target: T1, MC4 (Homo sapiens, UniProt P32245)
# T1 construct: purchased Perkin Elmer BioSignal; host or cells: HEK 293
# Experiment: GPCR radioligand binding (RLB) assay, melanocortin MC4, [125I]NDP-αMSH
# Details: 10 micromolar compound; recombinant human receptor membranes (HEK 293)
# How it was run: (§1)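 Competition binding against radioligand ([125I]NDP-αMSH for MC4, [125I]SST-14 for SST5) on membranes of HEK 293 cells carrying the human receptor; buffer and incubation time optimized per receptor. Filtration through 0.5% PEI-treated glass fiber, washing, then scintillation counting.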
# T1 sequence (P32245 whole entry): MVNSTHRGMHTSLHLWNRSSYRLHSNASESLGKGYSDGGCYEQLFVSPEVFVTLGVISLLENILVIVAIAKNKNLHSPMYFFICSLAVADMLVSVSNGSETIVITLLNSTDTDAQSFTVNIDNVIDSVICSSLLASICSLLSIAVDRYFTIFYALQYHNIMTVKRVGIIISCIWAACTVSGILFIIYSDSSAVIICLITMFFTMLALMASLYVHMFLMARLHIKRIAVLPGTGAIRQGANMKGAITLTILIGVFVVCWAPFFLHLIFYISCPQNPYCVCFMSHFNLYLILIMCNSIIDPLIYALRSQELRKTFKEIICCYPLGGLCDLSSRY
row,Structure (SMILES),MC4 inhibition at 10 micromolar
1,CSC1OC(COCc2ccc(Cl)cc2)C(O)C(OCc2ccc3ccccc3c2)C1NC(=O)CCCN (stereo not drawn) [Compound 201],+ (Indicates inhibition greater than . . . 50%)
2,CSC1OC(COCc2ccc(-c3ccccc3)cc2)C(O)C(OCc2ccccc2)C1NC(=O)CNC(=N)N (stereo not drawn) [Compound 132],+ (Indicates inhibition greater than . . . 50%)
3,CSC1OC(COCc2ccc3ccccc3c2)C(O)C(OCc2ccccc2)C1NC(=O)CCNC(=N)N (stereo not drawn) [Compound 140],+ (Indicates inhibition greater than . . . 50%)
4,CSC1OC(COCc2cccc(N)c2)C(O)C(OCc2ccccc2)C1NC(=O)Cc1ccccc1 (stereo not drawn) [Compound 327],+ (Indicates inhibition greater than . . . 50%)
5,CSC1OC(COCc2ccc(-c3ccccc3)cc2)C(O)C(OCc2ccc3ccccc3c2)C1NC(=O)CN (stereo not drawn) [Compound 203],+ (Indicates inhibition greater than . . . 50%)
6,COC[C@H]1OC(OCc2ccc(-c3ccccc3)cc2)[C@H](NC(=O)CCCNC(=N)N)[C@@H](OCc2ccc3ccccc3c2)[C@@H]1O (stereo partly drawn) [Compound 30],+ (Indicates inhibition greater than . . . 50%)

# Same assay, conditions: 10 micromolar; Example Library 4
row,Structure (SMILES),MC4 inhibition at 10 micromolar
1,COCC1OC(OCc2ccc3ccccc3c2)C(NC(=O)CCNC(=N)N)C(OCc2ccccc2)C1O (stereo not drawn) [Compound 287],+ (Indicates inhibition greater than . . . 50%)
2,COCC1OC(OCc2ccc(Cl)cc2)C(NC(=O)CNC(=N)N)C(OCc2ccc(Cl)cc2)C1O (stereo not drawn) [Compound 243],+ (Indicates inhibition greater than . . . 50%)
3,COCC1OC(OCCc2ccccc2)C(NC(=O)CCCN)C(OCc2ccc(Cl)cc2)C1O (stereo not drawn) [Compound 270],+ (Indicates inhibition greater than . . . 50%)
4,COCC1OC(OCc2ccc(Cl)cc2)C(NC(=O)CN)C(OCc2ccc3ccccc3c2)C1O (stereo not drawn) [Compound 254],+ (Indicates inhibition greater than . . . 50%)
5,COCC1OC(OCc2ccc(Cl)cc2)C(NC(=O)CNC(=N)N)C(OCc2ccc(-c3ccccc3)cc2)C1O (stereo not drawn) [Compound 249],+ (Indicates inhibition greater than . . . 50%)
6,COCC1OC(OCc2ccc3ccccc3c2)C(NC(=O)CNC(=N)N)C(OCc2ccccc2)C1O (stereo not drawn) [Compound 285],+ (Indicates inhibition greater than . . . 50%)
7,COCC1OC(OCc2ccccc2)C(NC(=O)CCCNC(=N)N)C(OCc2ccc3ccccc3c2)C1O (stereo not drawn) [Compound 236],+ (Indicates inhibition greater than . . . 50%)
8,COCC1OC(OCCc2ccccc2)C(NC(=O)CN)C(OCc2ccc3ccccc3c2)C1O (stereo not drawn) [Compound 278],+ (Indicates inhibition greater than . . . 50%)
9,COCC1OC(OCCc2ccccc2)C(NC(=O)CNC(=N)N)C(OCc2ccc(-c3ccccc3)cc2)C1O (stereo not drawn) [Compound 273],+ (Indicates inhibition greater than . . . 50%)
10,COCC1OC(OCc2ccccc2)C(NC(=O)CCNC(=N)N)C(OCc2ccc(Cl)cc2)C1O (stereo not drawn) [Compound 222],+ (Indicates inhibition greater than . . . 50%)
11,COCC1OC(OCCc2ccccc2)C(NC(=O)CCCNC(=N)N)C(OCc2ccccc2)C1O (stereo not drawn) [Compound 265],+ (Indicates inhibition greater than . . . 50%)
12,COCC1OC(OCc2ccc(Cl)cc2)C(NC(=O)CCCNC(=N)N)C(OCc2ccc(-c3ccccc3)cc2)C1O (stereo not drawn) [Compound 253],+ (Indicates inhibition greater than . . . 50%)

# Molecular target: T2, SST5 (Homo sapiens, UniProt P35346)
# T2 construct: purchased Perkin Elmer BioSignal; host or cells: HEK 293
# T2 sequence (P35346 whole entry): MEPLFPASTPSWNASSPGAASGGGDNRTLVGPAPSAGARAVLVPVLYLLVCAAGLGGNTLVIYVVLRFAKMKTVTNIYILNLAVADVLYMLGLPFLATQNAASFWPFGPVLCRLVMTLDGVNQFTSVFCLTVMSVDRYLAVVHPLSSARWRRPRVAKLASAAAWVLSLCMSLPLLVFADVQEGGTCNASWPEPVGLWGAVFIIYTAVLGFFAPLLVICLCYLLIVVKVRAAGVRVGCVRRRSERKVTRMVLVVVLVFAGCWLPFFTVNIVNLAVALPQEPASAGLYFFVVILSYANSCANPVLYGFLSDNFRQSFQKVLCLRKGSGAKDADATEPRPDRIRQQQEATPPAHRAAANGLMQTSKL
# Experiment: GPCR radioligand binding (RLB) assay, somatostatin SST5, [125I]SST-14
# Details: 10 micromolar compound; recombinant human receptor membranes (HEK 293)
# How it was run: as §1
row,Structure (SMILES),SST5 inhibition at 10 micromolar
1,CSC1OC(COCc2ccc(Cl)cc2)C(O)C(OCc2ccc3ccccc3c2)C1NC(=O)CCCN (stereo not drawn) [Compound 201],+ (Indicates inhibition greater than . . . 50%)
2,CSC1OC(COCc2ccc(-c3ccccc3)cc2)C(O)C(OCc2ccccc2)C1NC(=O)CNC(=N)N (stereo not drawn) [Compound 132],+ (Indicates inhibition greater than . . . 50%)
3,CSC1OC(COCc2ccc3ccccc3c2)C(O)C(OCc2ccccc2)C1NC(=O)CCNC(=N)N (stereo not drawn) [Compound 140],+ (Indicates inhibition greater than . . . 50%)
4,CSC1OC(COCc2cccc(N)c2)C(O)C(OCc2ccccc2)C1NC(=O)Cc1ccccc1 (stereo not drawn) [Compound 327],+ (Indicates inhibition greater than . . . 50%)
5,CSC1OC(COCc2ccc(-c3ccccc3)cc2)C(O)C(OCc2ccc3ccccc3c2)C1NC(=O)CN (stereo not drawn) [Compound 203],+ (Indicates inhibition greater than . . . 50%)
6,COC[C@H]1OC(OCc2ccc(-c3ccccc3)cc2)[C@H](NC(=O)CCCNC(=N)N)[C@@H](OCc2ccc3ccccc3c2)[C@@H]1O (stereo partly drawn) [Compound 30],+ (Indicates inhibition greater than . . . 50%)

# Same assay, conditions: 10 micromolar; Example Library 4
row,Structure (SMILES),SSTS inhibition at 10 micromolar
1,COCC1OC(OCc2ccc3ccccc3c2)C(NC(=O)CCNC(=N)N)C(OCc2ccccc2)C1O (stereo not drawn) [Compound 287],+ (Indicates inhibition greater than . . . 50%)
2,COCC1OC(OCc2ccc(Cl)cc2)C(NC(=O)CNC(=N)N)C(OCc2ccc(Cl)cc2)C1O (stereo not drawn) [Compound 243],+ (Indicates inhibition greater than . . . 50%)
3,COCC1OC(OCCc2ccccc2)C(NC(=O)CCCN)C(OCc2ccc(Cl)cc2)C1O (stereo not drawn) [Compound 270],+ (Indicates inhibition greater than . . . 50%)
4,COCC1OC(OCc2ccc(Cl)cc2)C(NC(=O)CN)C(OCc2ccc3ccccc3c2)C1O (stereo not drawn) [Compound 254],+ (Indicates inhibition greater than . . . 50%)
5,COCC1OC(OCc2ccc(Cl)cc2)C(NC(=O)CNC(=N)N)C(OCc2ccc(-c3ccccc3)cc2)C1O (stereo not drawn) [Compound 249],+ (Indicates inhibition greater than . . . 50%)
6,COCC1OC(OCc2ccc3ccccc3c2)C(NC(=O)CNC(=N)N)C(OCc2ccccc2)C1O (stereo not drawn) [Compound 285],+ (Indicates inhibition greater than . . . 50%)
7,COCC1OC(OCc2ccccc2)C(NC(=O)CCCNC(=N)N)C(OCc2ccc3ccccc3c2)C1O (stereo not drawn) [Compound 236],+ (Indicates inhibition greater than . . . 50%)
8,COCC1OC(OCCc2ccccc2)C(NC(=O)CN)C(OCc2ccc3ccccc3c2)C1O (stereo not drawn) [Compound 278],+ (Indicates inhibition greater than . . . 50%)
9,COCC1OC(OCCc2ccccc2)C(NC(=O)CNC(=N)N)C(OCc2ccc(-c3ccccc3)cc2)C1O (stereo not drawn) [Compound 273],+ (Indicates inhibition greater than . . . 50%)
10,COCC1OC(OCc2ccccc2)C(NC(=O)CCNC(=N)N)C(OCc2ccc(Cl)cc2)C1O (stereo not drawn) [Compound 222],+ (Indicates inhibition greater than . . . 50%)
11,COCC1OC(OCCc2ccccc2)C(NC(=O)CCCNC(=N)N)C(OCc2ccccc2)C1O (stereo not drawn) [Compound 265],+ (Indicates inhibition greater than . . . 50%)
12,COCC1OC(OCc2ccc(Cl)cc2)C(NC(=O)CCCNC(=N)N)C(OCc2ccc(-c3ccccc3)cc2)C1O (stereo not drawn) [Compound 253],+ (Indicates inhibition greater than . . . 50%)
